Several values for one entry are separate records, joined by “and”; a condition that tells them apart may be missing. Equal entries are not always repeated.
Columns and labels:
[1] = tested on: HIV Rev – HIV RNA complex; parameters: method as in PMID 25503645, PMID 17967062; conditions: Figure 1; cited from earlier work
[2] = tested on: C. albicans ATCC 10231; assay: MIC by twofold serial dilution, C. albicans; assay type: cell-based; conditions: Candida albicans, ATCC10231; 24 h, 35 °C; read-out: MIC (Mean ± SE) C. albicans ATCC 10231
Protocol: (§1) Candida albicans ATCC 10231, Pseudomonas aeruginosa ATCC 27853, and Staphylococcus aureus ATCC 29213 strains were obtained from the American Type Culture Collection (ATCC; Rockville, MD, USA). The subculture and inoculum preparation were performed according to CLSI M27-A3 for C. albicans on yeast extract peptone dextrose (YPD) agar (HiMedia, Mumbai, Maharashtra, India) and RPMI-1640 medium (PanEco, Moscow, Russia) with MOPS (3-(N-morpholino) propanesulfonic acid, >99.5%; PanEco, Moscow, Russia), and M7-A11 for P. aeruginosa and S. aureus on Mueller-Hinton agar (MHA; HiMedia, Mumbai, Maharashtra, India) and Mueller-Hinton broth (MHB; HiMedia, Mumbai, Maharashtra, India). The stock cell concentrations of fungus and bacteria were 1 × 10^6 and 1 × 10^8 cells/mL, respectively. A working suspension of C. albicans (5.0 × 10^2 cells/mL) was prepared by two-step dilution of the broth concentration with the RPMI-1640 medium. Assay suspensions of P. aeruginosa and S. aureus (1.0 × 10^6 cells/mL) were prepared by diluting the concentration with Mueller-Hinton broth (HiMedia, Mumbai, Maharashtra, India). Amphotericin B (Sigma-Aldrich, Burlington, MA, USA) and gentamicin (Sigma-Aldrich, Burlington, MA, USA) were used as secondary pharmaceutical standards.
(§2) The minimum inhibitory concentration (MIC) was determined by the twofold serial dilution method, according to CLSI M27-A3 [33] and M07-A11 [34], in three independent experiments with four replicates each. Amphotericin B was used as a positive control for fungus; gentamicin was used as a positive control for bacteria. Stock solutions except gentamicin were prepared in DMSO at a concentration of 6400 μg/mL. Gentanicin was solubilized in sterile water at a concentration of 1280 μg/mL. Stock solutions of the tested substances were diluted to the final concentrations in the assay medium and 100 μL of each sample was added to the wells of 96-well plates, and then 100 μL of inoculum was added. Rows 11 and 12 were left for the negative control (medium with inoculum without the drug) and sterility control. The plates were incubated for 24 h at 35 °C in the case of C. albicans and at 37 °C in the case of P. aeruginosa and S. aureus. The tested concentration for gentamicin ranged from 0.0625 to 32 μg/mL; for other compounds, it ranged from 0.125 to 64 μg/mL. The MIC value was determined using spectrophotometer. The MIC was taken to be the lowest drug concentration that caused complete inhibition of microorganism growth compared to the control. The final MIC values were reported as the means with standard error (SE). Standard errors for µg/mL values less than 0.01 were excluded; standard errors for µM values less than 0.1 were excluded (Table 3).

[3] = tested on: HIV-1 (subtype B) in MT-4 cells; assay: Antigen p24 assay in HIV-infected MT-4 cells; assay type: cell-based; conditions: Human immunodeficiency virus 1, MT4; HIV-1 899A strain (subtype B), third day after infection
Protocol: The human MT-4 lymphoblastoid cells were cultured in RPMI 1640 medium supplemented with 10% fetal bovine serum (FBS) (HyClone, Logan, UT, USA), 2 mM L-glutamine, 50 U/mL penicillin, and 50 μg/mL streptomycin in a humidified atmosphere of 5% CO2 at 37 °C. The cells were re-seeded at a density of 3.0 × 10^5 cells/mL every three days. The HIV-1_899A strain (subtype B) was used from the collection of human immunodeficiency virus strains of the D.I. Ivanovsky Institute of Virology, N. F. Gamaleya National Research Center of Epidemiology and Microbiology, Ministry of Health, Moscow, Russia. The commercial drug Efavirenz (EFV), a non-nucleoside inhibitor of HIV reverse transcriptase, was used as a positive control. HIV-1 was added to the cells at 0.1 CCID50 (50% cell culture infectious dose). The cells, both infected and non-infected, were then incubated at 37 °C in a humidified atmosphere containing 5% CO2 for a 40 min period, after which the cells were washed twice in serum-free RPMI 1640 and plated into the wells of a 96-well plate. The tested compounds were then added to the cells at concentrations from 0.5 μM to 100 μM. The final ethanol concentration was 1% v/v. On the third day after infection, the culture fluid was collected for determining the amount of p24 antigen by enzyme immunoassay analysis using a commercial test system kit (Genscreen ULTRA HIV Ag-Ab, Bio-Rad, Hercules, CA, USA). Cell viability was measured by MTT assay.

[4] = tested on: P. aeruginosa ATCC 27853; assay: MIC by twofold serial dilution, P. aeruginosa; assay type: cell-based; conditions: Pseudomonas aeruginosa, ATCC27853; 24 h, 37 °C; read-out: MIC (Mean ± SE) P. aeruginosa ATCC 27853
Protocol: as §1, §2

[5] = tested on: S. aureus ATCC 29213; assay: MIC by twofold serial dilution, S. aureus; assay type: cell-based; conditions: Staphylococcus aureus, ATCC29213, 24 h, 37 °C, read-out: MIC (Mean ± SE) S. aureus ATCC 29213
Protocol: as §1, §2

[6] = target: T1, recombinant HIV-1 Integrase (strand transfer) (Human immunodeficiency virus type 1 group M subtype B, UniProt P04585); parameters: method as in PMID 12234864; conditions: positive control, known value; cited from earlier work
T1 construct: The recombinant HIV-1 Integrase (In) was isolated from the Rosetta Escherichia coli producer strain; made in house; host or cells: Escherichia coli Rosetta

[7] = tested on: Ku70; parameters: method as in PMID 27130816; conditions: read-out: IC50, Ku70 interaction with DNA; cited from earlier work

For `FC(F)(F)Oc1ccc(Nc2ccc3cccc(Cl)c3n2)cc1` [ABX464], the IC50 [1] is given as 100 to 500 nM.

In the case of `C[C@@H]1[C@H](O)[C@@H](C)/C=C/C=C/C=C/C=C/C=C/C=C/C=C/[C@H](O[C@@H]2O[C@H](C)[C@@H](O)[C@H](N)[C@@H]2O)C[C@@H]2O[C@](O)(C[C@@H](O)C[C@@H](O)[C@H](O)CC[C@@H](O)C[C@@H](O)CC(=O)O[C@H]1C)C[C@H](O)[C@H]2C(=O)O` [Amphotericin B, reference compound], the MIC [2] is reported as 0.4 µg/mL and 0.4 µM.

In the case of `O=C1Nc2ccc(Cl)cc2[C@@](C#CC2CC2)(C(F)(F)F)O1` [EFV, Efavirenz, reference compound], the IC50 [3] is reported as < 50 nM.

For `CNC(C)C1CCC(N)C(OC2C(N)CC(N)C(OC3OCC(C)(O)C(NC)C3O)C2O)O1` (stereo not shown) [Gentamicin, reference compound], the MIC [4] was 2 µg/mL and 4.2 µM and the MIC [5] was 0.6 µg/mL and 1.3 µM.

For `O=C(O)C(=O)CC(=O)c1cc(OCc2ccccc2)cc(OCc2ccccc2)c1` [L-708,906], the IC50 [6] is given as 500 ± 100 nM.

For `COc1ccc(CCNc2ncc3c(=O)n(-c4cccc(F)c4)c(=O)[nH]c3n2)cc1OC` [STL127705], the IC50 [7] is listed as 3500 nM.
